From patent publication US20150141381A1, “TETRACYCLINE COMPOUNDS HAVING TARGET THERAPEUTIC ACTIVITIES” (Paratek Pharmaceuticals, Inc., priority 2001, published 2015)
Where two headings read alike, the source gives them in different places.

Legend:
S. aureus RN450 = assay: In Vitro Anti-Bacterial Activity Assay (MIC), gram positive; type: cell-based; details: Staphylococcus aureus, RN450, 18 h
E. coli mL308 225 = assay: In Vitro Anti-Bacterial Activity Assay (MIC), gram negative; type: cell-based; details: Escherichia coli, ML308225, 18 h
[1] = test system: nitric oxide synthesis in the J774 cell line; assay: Lipopolysaccharide Stimulation of Macrophage Assay (LSM Assay), inhibition of nitric oxide; type: cell-based; details: for Nitrite: inhibition of nitric oxide synthesis, LPS (100 ng/ml) stimulated J774 cells, nitrite by Greiss Reaction, test compound 56 μg/ml; for Nitrite (inhibition of nitric oxide synthesis): LPS-stimulated J774 cells, Table 3 (Continued) key
Protocol: This assay was used to determine the anti-inflammatory effect of tetracycline compounds of the invention by determining the modulation of nitric oxide, interleukin-10 and interleukin-12 synthesis in the J774 cell line, according to a literature procedure (D'Agostino P. et al. Int Immunopharmacol. 2001 September; 1(9-10):1765-76). J774.2 cells were stimulated with 100 ng/ml lipopolysaccharide (LPS). Nitrite, the spontaneous degradation product of nitric oxide, is measured in cell supernatants using the Greiss Reaction. In the experimental conditions, test tetracycline compounds were added 30 minutes prior to LPS stimulation. Cytotoxicity is determined using Resazurin metabolism. On the first day, a 96-well black-walled plate (except for the bottom row) was seeded with 100 μl of a 2.5×10^6 cells/ml suspension and incubated for two hours at 37° C. and 5% CO2. Towards the end of the two hour incubation period, test compounds were prepared at a concentration of 139 μg/ml, in 1.25% DMSO, a 2.5× concentration ready for addition to the cells.
At the end of the two hour incubation period, 80 μl of each of the test tetracycline compound solutions were added to the cell plates to make a final concentration of 56 μg/ml. Next, 80 μl of 1.25% DMSO in media was added to the negative control wells. Then, 80 μl of media was added to the positive control wells. The plate was then incubated for half an hour at 37° C., 5% CO2. A 10× working solution of LPS was prepared at a concentration of 1 μg/ml LPS.
After the half hour incubation period, 20 μl of LPS (1 μg/ml) in media was added to half of the test and control wells to give a final concentration of 100 ng/ml. Next, 20 μl of media was added to other half of the wells. The plate was then incubated for 24 hours at 37° C., 5% CO2. 100 μl of the supernatant from each well was collected for nitrite testing. 60 μl of the supernatant was collected for cytokine testing using an enzyme linked immunosorbant assay. The plates are then stored after being covered with sealer and frozen.
For the testing toxicity, the remaining media was blotted from the cell plates and 50 μl of Resazurin was added to each well (0.042 mg/ml in PBS w/Ca and Mg). The plate were then incubated for 45 mins, 37° C., 5% CO2, and for 30 minutes at room temperature. The plate was then read for Resazurin fluorescence.
50 μl/well of sulfanilamide solution (1% sulfanilamide in 5% […]) was added to supernatant plates. The plates were then incubated for 10 minutes at room temperature in the dark. Next, 50 μl/well NED solution (0.1% N-1-naphthylethylene diamine dihydrochloride in water) was added and incubated for 10 minutes at room temperature in the dark. Plates are then read for nitrite measurement and compared to a standard curve generated from the control wells.

[2] = test system: cultured murine cortical neurons; assay: Protection of Cultured Cortical Neurons from Excitotoxic Injury Induced by NMDA (NE Assay); type: cell-based, mice; details: NMDA 62.5 μM, LDH release 24 hours after starting the exposure
Protocol: Primary cortical astrocyte cultures were prepared from one-day old mice, as described in the literature procedure (Tikka, T M et al. J Immunol. 2001 Jun. 15; 166(12):7527-33). After decapitation, the forebrain cortices were collected, cleaned from meninges and, after mincing, dissociated by incubation in papain/Dnase solution followed by trituration. The dissociated cells were suspended in a culture medium consisting of Eagle's minimal essential medium (MEM) with 10% heat-inactivated fetal bovine serum and glutamine (2 mM) and plated in 75 cm^2 cell culture flasks. The medium was replaced with fresh culture medium at day 7. At confluence (day 12-15), the astrocytes were trypsinized and re-plated into 24-well culture vessels. On day 7-8, the neurons were cultured on top of these confluent astrocyte monolayers.
Cortical neuron suspensions were prepared from embryonic day 17 mice. The cortices were collected and meninges removed. The tissue was minced into small pieces and incubated in trypsin solution. The tissue was suspended using a pipette and after centrifugation resuspended and plated on top of astrocyte cultures at a density of 250,000 cells/well to 24-well culture vessel in Eagle's minimal essential medium (MEM, Earle's salts) supplemented with 20 mM glucose, 2 mM glutamine, 10% fetal bovine serum, and 10% heat-inactivated horse serum (HS). Medium was changed after 5 days to MEM containing 20 mM glucose, 2 mM glutamine, and 10% HS, as well as cytosine arabinoside (final concentration 10 μM) to inhibit cell division, and incubated for 2 days. Subsequently, cultures were fed twice weekly with MEM supplemented with 20 mM glucose, 2 mM glutamine and 10% HS, and used at day 12-15.
On the day of experiment, the culture medium was replaced with 1) MEM, 2) MEM containing the test tetracycline compounds. Positive control drug included 10 μM MK-801 (Sigma). […] As a control for total neuronal death, a 24 hour incubation with 500 μM NMDA was used (100% cell death control).
The cell viability was assessed by measuring lactate dehydrogenase (LDH) release 24 hours after starting the exposure. The LDH release to the culture medium was measured from cell-free medium using Sigma LDH reagent employing kinetic measurement of conversion of lactate to pyruvate using NADH as a cofactor. The rate of increase in absorbance at 340 nm was directly proportional to the activity of LDH in the sample, and was measured with a Labsystems Multiskan ELISA reader.

[3] = test system: MMP-9 production from PMA stimulated THP-1 cells; assay: Assay for MMP-9 Production from PMA Stimulated THP-1 Cells; type: cell-based, human; details: PMA 10 nM, 24 hours, MMP-9 ELISA of conditioned media
Protocol: Cultures of human monocyte THP-1 cells were suspended at 1×10^6 cells/mL in RPMI-1640 supplemented with 10% FCS. Cell suspensions (90 μL per well) were seeded into 96-well microtiter plates, and incubated for 30 minutes at 37° C., in 5% CO2 and approximately 95% humidity. Serial dilutions of test drug are prepared at 2× final concentration under sterile conditions and 100 μL was transferred to cell plates. Plates were then incubated as above for 15 minutes. PMA (phorbol-12-myristate-13-acetate) was diluted in media to 20× final concentration. 10 μL of diluted PMA was added to the cell plate, resulting in a final concentration of 10 nM. Plates were then incubated again as above for 24 hours. After 24 hours, 100 μL of conditioned media was tested for MMP-9 protein levels using the Quantikine® Human MMP-9 (total) Immunoassay from R&D Systems. MMP-9 levels were calculated based on a standard curve of purified MMP-9 dilution samples run simultaneously in the ELISA plate. This assay detected both the 92 kDa pro- and 82 kDa active forms of MMP-9.

in vitro = type: cell-based; details: African green monkey (COS-1) and Chinese hamster (CHO-K1)
Protocol: COS-1 and CHO-K1 cell suspensions were prepared, seeded into 96-well tissue culture treated black-walled microtiter plates (density determined by cell line), and incubated overnight at 37° C., in 5% CO2 and approximately 95% humidity. The following day, serial dilutions of drug were prepared under sterile conditions and transferred to cell plates. Cell/Drug plates were incubated under the above conditions for 24 hours. Following the incubation period, media/drug was aspirated and 50 μl of Resazurin (0.042 mg/ml in PBS w/Ca and Mg) was added. The plates were then incubated under the above conditions for 2 hours and then in the dark at room temperature for an additional 30 minutes. Fluorescence measurements were taken (excitation 535 nm, emission 590 nm).

[4] = MIC class, Table 3, read-out: Antibiotic Activity Gram +
[5] = MIC class, Table 3, read-out: Antibiotic Activity Gram −
[6] = gram positive bacteria, read-out: Antibiotic Activity Gram + (MIC)
[7] = gram negative bacteria, read-out: Antibiotic Activity Gram − (MIC)

SMILES: CN(C)c1cc(-c2ccc(CN3CCCC3)o2)c(O)c2c1C[C@H]1C[C@H]3[C@H](N(C)C)C(O)=C(C(N)=O)C(=O)[C@@]3(O)C(O)=C1C2=O [LJ]
- MIC (S. aureus RN450; [4]): > 4 µg/mL
- MIC (E. coli mL308 225; [5]): > 4 µg/mL
- Nitrite [1]: ○

SMILES: CCC(=O)O[C@H]1[C@H]2C(=C(O)[C@]3(O)C(=O)C(C(N)=O)=C(O)[C@@H](N(C)C)[C@H]13)C(=O)c1c(ccc(NC(=O)Nc3cccc4ccccc34)c1O)[C@@H]2C [Q]
- neuroprotection (cell viability by LDH release) [2]: good neuroprotection
- MIC (S. aureus RN450; [4]): < 4 µg/mL
- MIC (E. coli mL308 225; [5]): > 4 µg/mL
- Nitrite [1]: ○

SMILES: CCCCOc1ccc(N(C)C)c2c1C(=O)C1=C(O)[C@]3(O)C(=O)C(C(N)=O)=C(O)[C@@H](N(C)C)[C@@H]3C[C@@H]1C2 [OM]
- neuroprotection (cell viability by LDH release) [2]: good neuroprotection
- MIC (S. aureus RN450; [4]): > 4 µg/mL
- MIC (E. coli mL308 225; [5]): > 4 µg/mL
- Nitrite [1]: ○

SMILES: CN(C)[C@@H]1C(O)=C(C(N)=O)C(=O)[C@@]2(O)C(O)=C3C(=O)c4c(O)ccc(N5CCOCC5)c4C[C@H]3C[C@@H]12 [drawing 4289]
- MMP-9 (inhibition of MMP-9 production) [3]: 2

SMILES: CN(C)[C@@H]1C(O)=C(C(N)=O)C(=O)[C@@]2(O)C(O)=C3C(=O)c4c(O)ccc(-c5ccccn5)c4C[C@H]3C[C@@H]12
- MIC (S. aureus RN450; [6]): < 4 µg/mL
- MIC (E. coli mL308 225; [7]): < 4 µg/mL
- Nitrite (inhibition of nitric oxide synthesis) [1]: 3

SMILES: CN(C)c1ccc(O)c2c1CC1CC3[C@H](N(C)C)C(O)=C(C(N)=O)C(=O)C3(O)C(O)=C1C2=O (some centres unmarked) [minocycline, Minocycline]
- IC50 at 24 h (in vitro): > 25 µg/mL

SMILES: CC1c2cccc(O)c2C(=O)C2=C(O)C3(O)C(=O)C(C(N)=O)=C(O)C(N(C)C)C3C(O)C21 (centres unmarked) [doxycycline, Doxycycline]
- IC50 at 24 h (in vitro): > 25 µg/mL

SMILES: CN(C)[C@@H]1C(O)=C(C(N)=O)C(=O)[C@@]2(O)C(O)=C3C(=O)c4c(O)ccc(-c5ccc(NC(=O)c6ccno6)cc5)c4C[C@H]3C[C@@H]12 [drawing 4097]
- MMP-9 (inhibition of MMP-9 production) [3]: 3

SMILES: C[C@H]1c2ccc(CN3CCC(C(F)(F)F)CC3)c(O)c2C(=O)C2=C(O)[C@]3(O)C(=O)C(C(N)=O)=C(O)[C@@H](N(C)C)[C@@H]3[C@@H](O)[C@@H]21
- MIC (S. aureus RN450; [6]): < 4 µg/mL
- MIC (E. coli mL308 225; [7]): < 4 µg/mL
- Nitrite (inhibition of nitric oxide synthesis) [1]: 3

SMILES: CN(C)CCC(=O)c1ccc(O)c2c1C[C@H]1C[C@H]3[C@H](N(C)C)C(O)=C(C(N)=O)C(=O)[C@@]3(O)C(O)=C1C2=O [drawing 4022]
- MMP-9 (inhibition of MMP-9 production) [3]: 3

SMILES: CC(=O)Nc1cccc(-c2cc(N(C)C)c3c(c2O)C(=O)C2=C(O)[C@]4(O)C(=O)C(C(N)=O)=C(O)[C@@H](N(C)C)[C@@H]4C[C@@H]2C3)c1 [G]
- neuroprotection (cell viability by LDH release) [2]: good neuroprotection
- MIC (S. aureus RN450; [4]): > 4 µg/mL
- MIC (E. coli mL308 225; [5]): > 4 µg/mL
- Nitrite [1]: ○
